Measurements: US7258861B2, “TNF-derived peptides for use in treating oedema” (Innogenetics N.V., priority 2001, dated 2007)
Values joined by “and” are separate entries in the source; they are usually repeats but may differ in a detail not shown here. Equal entries are not always repeated.

What was measured:
[1] = system: ex vivo instilled rat lung; test: Ex vivo rat flooded lung, model of hydrostatic edema
Method: In this model edema is induced by instillating 2 ml of 0.9% NaCl solution intratracheally. Alternatively, edema formation can be modulated by varying the height of the venous outflow and the perfusion buffer containing reservoir, or alternatively by varying the time the lung is exposed to the elevated pressure. […] The clearance of alveolar fluid from the lung is calculated by means of measuring the concentration of HSA, which is added to the instillate over time. Alternatively, the over time weight loss as a measure of edema resorption (high weight loss is high liquid clearance), of the artificially instilled lung can be measured. The lung tidal volume, compliance and weight are monitored continuously during the experiment. At the end of the experiment bronchoalveolar fluid and supernatant of lung homogenate is taken for measurement of inflammatory mediators.
The lungs of female Wistar rats (weight 200–250 g; Harlan-Winkelmann, Borchen, Germany) are prepared after terminal i.p. anesthesia by 160 mg/kg pentobarbitural —Na (Merial Ltd, Halbermoos, Germany) and perfused as described by Uhlig and Wolin (1994), and by Uhlig and von Bethmann (1997). All equipment is obtained from Hugo Sachs Electronics (March-Hugstetten, Germany). […] As perfusion medium, a Krebs-Henseleit buffer (38° C.) containing 2% bovine serum albumin (Fraction V, Scrva. Heidelberg, Germany), 0.1% glucose (Riedel-de-Haën Inc., Seelze, Germany), and 0.3% HEPES (ICN Biomedicals Inc., Ohio, USA) is used. The total amount of recirculating buffer is 100 ml. The lungs are suspended by the trachea and ventilated by negative pressure ventilation (inspiratory pressure: −7 cm H2O, expiratory pressure: −2 cm H2O) with 80 breaths per minute resulting in a tidal volume of approximately 2 ml. Every 5 minutes, a deep inspiratory breath (−20 cm H2O) is performed. Artificial thorax chamber pressure is measured with a differential pressure transducer (Validyne DP 45-14), and an air flow velocity with a pneumotachograh tube (Fleisch Type 0000) connected to a differential pressure transducer (Validyne DP 45-15). The perfusate flow (Narcomatic RT-500) and the arterial and venous pressure (Statham P23BB) are continuously monitored. The pH of the perfusate before entering the lung is kept at 7.25 to 7.35 by automatic bubbling of the buffer with CO2 as soon as the pH exceeds this range. A weight transducer is integrated into the chamber lid which allows the continuous assessment of lung weight. Data are recorded on a Pentium II computer using the Mathlab Sofware package (Mathworks, Inc., Nattick Mass., USA). For lung mechanics, the data are analyzed by applying the following formula: P=1/C*VT+RLdV/dT
Where P is chamber pressure, C pulmonary compliance, VT tidal volume, and RL airway resistance. All lung physiology parameters were normalized to time point 0, i.e. after the end of the preconditioning perfusion of 40 minutes.

[2] = system: resident peritoneal macrophages from mice deficient in both TNF receptor-1 and -2; test: Whole-cell patch clamp in resident peritoneal macrophages of TNFR1/2-deficient mice; type: cell-based, mouse; details: cells lacking TNF receptors
Excerpt: Animals, cells and reagents. Male CBA/J or C57BL/6 mice, as well as male TNFR ½^0/0 C57BL/6 mice deficient in TNF receptors (Bruce et al., 1996) provided by H. Bluethmann, F. Hoffmann-La Roche, Basel, Switzerland, were used at the age of 8–10 weeks. Their care was in accordance with institutional guidelines. Lung microvascular endothelial cells were isolated from CBA/J mice and characterized as described (Jackson et al., 1990) using magnetic beads (Dynabeads M-450, Dynal, Oslo, Norway), covalently bound to a purified rat-anti-mouse PECAM-1 monoclonal antibody (donated by B. Imhof, University of Geneva). Microvascular lung endothelial cells were resuspended in DMEM containing 2 mM L-glutamine, 100 U/ml penicillin, […], 20% FCS, 40 U/ml heparin and […] endothelial cell growth supplement (Brunschwig Chemie, Basel, Switzerland). For patch clamp experiments, cells were plated onto 35×10 mm easy grip Petri dishes (Beckton Dickinson, Plymouth, UK), pre-coated with 0.2% gelatin (Sigma, Buchs, Switzerland). Resident peritoneal macrophages, isolated in ice cold RPMI containing antibiotics and 10 U/ml Heparin, were left to adhere onto 35×10 mm easy grip Petri dishes for 4 h, after which the non-adherent cells were removed. […]
Electrophysiology. […] Currents were recorded with an Axopatch-200A amplifier (Axon Instrument Inc, Foster City, Calif., USA), low pass-filtered at 1 kHz. […]

[3] = Chloride efflux from SPQ-containing liposomes; details: 100% EPG liposomes, pH 6.1, 3 μg/ml
Method: Preparation of liposomes. Large unilamellar liposomes were prepared by reverse phase evaporation as previously described (Vecsey-Semjen et al., 1996). Liposomes were prepared of either 100% egg phosphatidylglycerol (EPG) or a mixture of EPC and EPG (1:1 W/W) in a buffer containing 100 mM KCl, 20 mM N-[2-Hydroxyethyl]piperazine-N′-[2-ethane-sulfonic acid] (HEPES), pH 7.4 and 1.5 mg/ml of 6-methoxy-N-(3-sulfopropyl)quinolinium (SPQ).
Choride efflux measurements. All fluorescence experiments were carried out using a PTI spectrofluorometer equipped with a thermostated cell holder (37° C.). The dye was excited at 350 nm and emission was recorded at 422 nm, both excitation and emission band widths were set to 5 nm. Liposomes were diluted to a final concentration of 50 μg/ml in a solution containing 100 mM KNO3 and 20 mM MES pH 6.1 or 20 mM HEPES, pH 7.4. Wild type and mutant TNF were added to a final concentration of 3 μg/ml.

In the case of “TNF: E.coli-derived recombinant murine TNF”, the “clearing alveolar fluid content ex vivo” value ([1]; after intratracheal instillation, summary in words) is reported as “capable of clearing alveolar fluid content”, the “Weight loss of ex vivo instilled rat lung over 80 min” value ([1]; recombinant TNF 5 μg/lung alone, listed as mTNF) is reported as 589 mg and 722 mg and 584 mg and the whole cell current [2] is reported as “induced a voltage-dependent current”. The “chloride efflux (SPQ fluorescence)” value [3] was “induced chloride efflux”.
